Measurements reported in patent publication US10196373B2, “Substituted 2-hydroxy-4-(2-(phenylsulfonamido)acetamido)benzoic acid analogs as inhibitors of STAT protein” (University of Central Florida Research Foundation, Inc., priority 2010, dated 2019).
Where two headings read alike, the source gives them in different places.

Experiments:
STAT3 [1] = biological target: STAT3 (Homo sapiens (Human), UniProt P40763); assay: Fluorescence polarization assay, inhibition of binding to STAT3; settings: inhibition of binding to STAT3 in a fluorescence polarization assay; read-out: Ki (FP)
Protocol: The fluorescent polarization experiments were performed on an Infinite M1000 (Tecan, Crailsheim, Germany). All assays were performed in the same buffer conditions of 50 mM NaCl, 10 mM Hepes, pH 7.5, 1 mM EDTA, and 2 mM dithiothreitol. Fluorescent-labelled peptides were kept at a final concentration of 10nM in buffered solution. […] of labelled peptides were added to […] of a 300 nM STAT3 protein solution (provided by SignalChem in 50 mM Tris-HCl, pH 7.5, 150 mM NaCl, 0.25 mM DTT, 0.1 mM PMSF, 25% glycerol and stored at −80° C.). Inhibitory molecules were dissolved in pure DMSO and diluted using buffer solution to produce four final concentrations ([…]). 7.5 μL of the inhibitory molecule solution was mixed with the STAT3 protein and labelled peptide solution in black 384-flat well microplates (Coming), and incubated for 15-30 minutes. The M1000 performed a shaking cycle and then read the plates. IC50′s were derived from the output using the curve-fitting software OriginPro 8 (Northampton, MA). The FP data was modelled by the following equation:
[formula] where X was the concentration of inhibitor and ρwas the corresponding fluorescence at that concentration. The free parameter was half the maximal inhibitory concentration (IC50) and the limiting values was the maximal measured fluorescence polarization (ρ1) and the minimal fluorescence polarization (ρ2). Origin curve fitting software utilizes the Levenberg-Marquardt algorithm and reduced chi-square criterion for convergence. The inhibitor dissociation constant, Ki, was calculated from the derived IC50 values, as per the following formula: […]
Further details of the fluorescence polarization assay are as described previously (Zhang X, et al. (2010) A novel small-molecule disrupts Stat3 SH2domainphosphotyrosine interactions and Stat3-dependent tumor processes. Biochem Pharmacol 79: 1398-1409).

OCI-AMI.2 cells = assay: Cell viability, MTS assay; format: cell-based
STAT3 [2] = biological target: STAT3 (Mus musculus, UniProt P42227); assay: Stat3 DNA-binding activity, electrophoretic mobility shift assay (EMSA) with nuclear extracts; format: biochemical
Protocol: Nuclear extract preparations and electrophoretic mobility shift assay (EMSA) were carried out as previously described (Yang J, et al. (2005) Cancer Res. 65:939-947). […] For direct effect of a test compound on Stat3 DNA-binding activity, nuclear extracts were pre-incubated with the agent for 30 min at room temperature prior to incubation with the radiolabeled probe for 30 min at 30° C. before subjecting to EMSA analysis. […] Cytosolic extract preparation from mammalian cells and luciferase assay previously described (Zhang X, et al. (2010) Biochem Pharmacol 79:1398-1409; Turkson J, et al. (1999) Mol. Cell. Biol. 19:7519-7528; Turkson J, et al. (1998) Mol. Cell. Biol. 18:2545-2552).)

MDA-468 cells = assay: Cell viability, MTS assay; format: cell-based; settings: Homo sapiens, MDA-468, 72 hours
Protocol: (§1) To further test activity of these molecules, a whole-cell study involving cancer lines with known abherrant STAT3 expression was conducted. These human cell lines, including prostate cancer (DU145), breast cancer (MDA468), and promyelocytic leukemia (HL-60) were treated with the peptidomimetics and incubated for 72 hours. Disruption of cell viability was measured by MTS assay and IC50 values for the potential inhibitors was determined. OriginPro 8 (Northampton, Mass.) was used to evaluate EC50 using the dose response curve defined as follows:
(§2) [formula] where y is the fraction of death, x is the log of drug concentration. A2 is the top asymptote, A1 is the bottom asymptote, logx0 is the center of the curve, and p is the hill slope.

HL60 cells = assay: Cell viability, MTS assay; format: cell-based; settings: Homo sapiens, HL-60, HL60, 72 hours
Protocol: as §1, §2

DU-145 cells = assay: Cell viability, MTS assay; format: cell-based; settings: Homo sapiens, DU-145, 72 hours
Protocol: as §1, §2

MV-4-11 cells = assay: Cell viability in cell lines with constitutive activation of STAT5 (Almar Blue); format: cell-based
Protocol: (§3) To determine whether STAT5 inhbitors could be cytotoxic in cell lines that have constitutive activation of STAT5, the cell lines K562 and MV-4-11 were cultured at concentration 1×10^5, to insure that the cells are at the exponential stage of growth, and treated with the different synthesized molecules at concentrations of 10, 20 and 40 μM. Viability were determined using Almar Blue (Invitrogen) in 96-well plate over 3 consecutive days. Fluorescence was quantified using Spectra Max M5 (Molecular Devices).

K562 cells = assay: as above; format: cell-based
Protocol: as §3

[3] = inhibition of STAT3 activity in an EMSA

Chain of STAT3 (Mus musculus, UniProt P42227) (P42227 2-770 limits assumed): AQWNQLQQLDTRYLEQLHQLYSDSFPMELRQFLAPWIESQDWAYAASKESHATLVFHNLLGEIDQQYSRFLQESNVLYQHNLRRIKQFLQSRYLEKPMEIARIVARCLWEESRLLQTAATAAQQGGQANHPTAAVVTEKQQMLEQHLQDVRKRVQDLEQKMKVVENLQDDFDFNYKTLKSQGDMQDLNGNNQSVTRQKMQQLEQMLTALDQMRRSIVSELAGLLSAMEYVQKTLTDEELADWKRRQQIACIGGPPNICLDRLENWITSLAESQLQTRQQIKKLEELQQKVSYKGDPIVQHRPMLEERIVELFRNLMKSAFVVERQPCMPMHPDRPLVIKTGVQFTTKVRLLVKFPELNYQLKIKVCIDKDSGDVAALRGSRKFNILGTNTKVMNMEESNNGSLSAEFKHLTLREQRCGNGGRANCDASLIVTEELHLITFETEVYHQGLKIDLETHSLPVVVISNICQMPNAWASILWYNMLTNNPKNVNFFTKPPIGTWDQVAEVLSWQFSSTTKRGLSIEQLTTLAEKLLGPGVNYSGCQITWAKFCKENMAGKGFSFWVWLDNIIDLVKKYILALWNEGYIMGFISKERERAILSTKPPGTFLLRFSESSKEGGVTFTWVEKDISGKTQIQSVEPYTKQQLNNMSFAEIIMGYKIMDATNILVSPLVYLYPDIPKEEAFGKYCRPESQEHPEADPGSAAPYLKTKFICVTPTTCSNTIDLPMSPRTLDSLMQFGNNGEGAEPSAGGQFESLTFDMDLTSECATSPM
Chain of STAT3 (Homo sapiens (Human), UniProt P40763) (P40763 whole entry): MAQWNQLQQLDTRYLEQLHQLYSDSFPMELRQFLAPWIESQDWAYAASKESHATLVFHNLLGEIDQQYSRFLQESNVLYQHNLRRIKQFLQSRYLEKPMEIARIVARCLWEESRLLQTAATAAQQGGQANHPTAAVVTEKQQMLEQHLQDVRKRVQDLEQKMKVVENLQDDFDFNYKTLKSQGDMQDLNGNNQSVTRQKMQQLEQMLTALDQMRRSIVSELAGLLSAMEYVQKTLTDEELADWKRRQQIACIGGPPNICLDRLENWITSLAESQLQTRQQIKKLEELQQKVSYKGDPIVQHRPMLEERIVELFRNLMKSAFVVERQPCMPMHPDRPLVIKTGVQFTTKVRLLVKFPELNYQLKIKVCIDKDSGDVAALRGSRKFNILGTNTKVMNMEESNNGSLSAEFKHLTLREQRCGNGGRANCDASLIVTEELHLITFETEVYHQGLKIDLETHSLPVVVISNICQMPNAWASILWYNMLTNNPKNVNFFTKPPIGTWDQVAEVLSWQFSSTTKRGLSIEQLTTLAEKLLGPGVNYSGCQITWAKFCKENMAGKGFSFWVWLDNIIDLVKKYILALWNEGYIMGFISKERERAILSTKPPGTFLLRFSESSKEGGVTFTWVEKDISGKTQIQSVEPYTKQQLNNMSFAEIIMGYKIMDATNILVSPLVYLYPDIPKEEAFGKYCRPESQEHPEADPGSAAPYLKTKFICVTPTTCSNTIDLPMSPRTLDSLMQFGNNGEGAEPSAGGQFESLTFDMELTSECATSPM

IC50 (MV-4-11 cells)	IC50 (K562 cells)	SMILES	Ki (STAT3 [1])	IC50 (OCI-AMI.2 cells)	IC50 (STAT3 [2]; [3])	IC50 (MDA-468 cells)	IC50 (HL60 cells)	IC50 (DU-145 cells)	IC50 (STAT3 [2])	IC50 (MV-4-11 cells; Homo sapiens, MV4-11)	IC50 (K562 cells; Homo sapiens)
		Cc1ccc(S(=O)(=O)N(C)CC(=O)N(Cc2ccc(C3CCN(S(=O)(=O)c4ccc(C#N)cc4)CC3)cc2)c2ccc(C(=O)O)c(O)c2)cc1 [Compound 27KG, 4-(N-(4-(1-((4-cyanophenyl)sulfonyl)piperidin-4-yl)benzyl)-2-(N,4-dimethylphenyl-sulfonamido)acetamido)-2-hydroxybenzoic acid]	21.5 ± 2.2 µM	> 100 µM	50 ± 15 µM	94.9 ± 8.8 µM	83.1 ± 13.5 µM	> 100 µM			
		Cc1ccc(S(=O)(=O)N(C)CC(=O)N(Cc2ccc(-c3ccc(-c4ccc(C(N)=O)cc4)cc3)cc2)c2ccc(C(=O)O)c(O)c2)cc1 [Compound 27NH, 4-(N-((4″-carbamoyl-[1,1′:4′,1″-terphenyl]-4-yl)methyl)-2-(N,4-dimethylphenylsulfonamido)acetamido)-2-hydroxybenzoic acid]	16.7 ± 1.7 µM						43 ± 1.3 µM		
		COC(=O)c1cccc(-c2ccc(-c3ccc(CN(C(=O)CN(C)S(=O)(=O)c4ccc(C)cc4)c4ccc(C(=O)O)c(O)c4)cc3)cc2)c1 [Compound 27na]		35.1 ± 19.4 µM		29 ± 2.3 µM	33.2 ± 9.2 µM	81.5 ± 8 µM		24 ± 2 µM	24 ± 3 µM
		CN(CC(=O)N(Cc1ccc(C2CCCCC2)cc1)c1ccc(C(=O)O)c(O)c1)S(=O)(=O)c1ccc2ccccc2c1 [Compound 45D, 4-(N-(4-cyclohexylbenzyl)-2-(N-methylnaphthalene-2-sulfonamido)acetamido)-2-hydroxy-benzoic acid]		93.5 ± 32.2 µM	79.2 ± 11.2 µM	45.4 ± 23.2 µM	99.8 ± 15.6 µM	81 ± 39.3 µM			
		CN(CC(=O)N(Cc1ccc(C2CCCCC2)cc1)c1ccc(C(=O)O)c(O)c1)S(=O)(=O)c1cccc2ccccc12 [Compound 45E, 4-(N-(4-cyclohexylbenzyl)-2-(N-methylnaphthalene-1-sulfonamido)acetamido)-2-hydroxy-benzoic acid]	26.5 ± 0.4 µM	33.3 ± 19.8 µM	28.8 ± 2 µM	46.5 ± 12.4 µM	76.9 ± 50.5 µM	74.5 ± 30.2 µM			
		CN(CC(=O)N(Cc1ccc(C2CCCCC2)cc1)c1ccc(C(=O)O)c(O)c1)S(=O)(=O)c1cccc2cccnc12 [Compound 45F, 4-(N-(4-cyclohexylbenzyl)-2-(N-methylquinoline-8-sulfonamido)acetamido)-2-hydroxy-benzoic acid]	41 ± 0.4 µM	> 100 µM	24.6 ± 3.4 µM	> 100 µM	> 100 µM	> 100 µM			
		Cc1cc(C)c(S(=O)(=O)N(C)CC(=O)N(Cc2ccc(C3CCCCC3)cc2)c2ccc(C(=O)O)c(O)c2)c(C)c1 [Compound 45b, 4-(N-(4-cyclohexylbenzyl)-2-(N,2,4,6-tetramethylphenylsulfonamido)acetamido)-2-hydroxy-benzoic acid]		65.4 ± 13 µM		22.6 ± 8.3 µM	40.4 ± 20.2 µM	44.5 ± 16 µM		> 80 µM	80 ± 18 µM
		CN(CC(=O)N(Cc1ccc(C2CCCCC2)cc1)c1ccc(C(=O)O)c(O)c1)S(=O)(=O)c1ccc(-c2ccccc2)cc1 [Compound 45c, 4-(N-(4-cyclohexylbenzyl)-2-(N-methylbiphenyl-4-ylsulfonamido)acetamido)-2-hydroxy-benzoic acid]		95.4 ± 33.7 µM		47.4 ± 6.2 µM	74.8 ± 28.2 µM	80 ± 31.6 µM		17 ± 1 µM	42 ± 16 µM
51 ± 7 µM	> 80 µM	Cc1ccc(S(=O)(=O)N(CC(=O)N(Cc2ccc(C3CCCCC3)cc2)c2ccc(C(=O)O)c(O)c2)C(=O)OC(C)(C)C)cc1 [SF-1-087]									
> 80 µM	77 ± 5 µM	Cc1ccc(S(=O)(=O)N(CC(=O)N(Cc2ccccc2)c2ccc(C(=O)O)c(O)c2)C(=O)OC(C)(C)C)cc1 [SF-1-088]									
